Test results taken from patent US8859549B2, “Potassium channel modulators” (AbbVie, Inc., priority 2011, dated 2014).

Biological target: T1, KCNQ 2/3 channels (Homo sapiens, UniProt O43525+O43526)
T1 construct: expressed in transfected cells; host or cells: HEK293
Experiment: KCNQ 2/3 channel activation, thallium flux FLIPR assay (BTC-AM dye)
Type: cell-based
Conditions: for Emax: HEK293, maximum response relative to the response of 10 μM retigabine (set at 100%), HEK293 KCNQ2/KCNQ3 cells, read-out: % MAX; for EC50: HEK293 cells stably expressing human KCNQ2 and KCNQ3 subunits, thallium-induced fluorescence, 4 min compound incubation
Method in brief: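 HEK293 cells stably expressing human KCNQ2/KCNQ3 were loaded with BTC-AM (3 μg/mL, 2 h, RT) and preincubated with compound for 4 min in pH 7.3 gluconate buffer containing 0.1 mM ouabain. Flux was triggered by 6 mM TlNO3/10 mM K2SO4 and read for 3 min; EC50 came from summed responses over basal, with maximum relative to 10 μM retigabine (100%).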

Structure (SMILES) | Emax | EC50
CC(C)(CC(=O)Nn1nc(S(=O)(=O)c2ccccc2)c2ccccc2c1=O)c1ccccc1 [Example 194, 3-methyl-N-[1-oxo-4-(phenylsulfonyl)phthalazin-2(1H)-yl]-3-phenylbutanamide] | 63.4% | 1780 nM
CCOC(=O)Cc1nn(NC(=O)Cc2ccc(Cl)cc2)c(=O)c2ccccc12 [Example 116, ethyl(3-{[(4-chlorophenyl)acetyl]amino}-4-oxo-3,4-dihydrophthalazin-1-yl)acetate] | 61.4% | 7620 nM
O=C(Cc1ccc(Cl)c(Cl)c1)Nn1nc(N2CCOCC2)c2ccccc2c1=O [Example 177, 2-(3,4-dichlorophenyl)-N-[4-(morpholin-4-yl)-1-oxophthalazin-2(1H)-yl]acetamide] | 131% | 628 nM
Cc1cc(C)c(CC(=O)Nn2nc(N3CCOCC3)c3ccccc3c2=O)c(C)c1 [Example 168, N-[4-(morpholin-4-yl)-1-oxophthalazin-2(1H)-yl]-2-(2,4,6-trimethylphenyl)acetamide] | 1.91% | –
N#Cc1ccc(S(=O)(=O)c2nn(NC(=O)Cc3ccc(Cl)cc3)c(=O)c3ccccc23)cc1 [Example 222, 2-(4-chlorophenyl)-N-{4-[(4-cyanophenyl)sulfonyl]-1-oxophthalazin-2(1H)-yl}acetamide] | 90% | 97.9 nM
CCOC(=O)C(NC(=O)Cc1ccc(Cl)cc1)c1nn(NC(=O)Cc2ccc(Cl)cc2)c(=O)c2ccccc12 (stereo not shown) [Example 117, ethyl{[(4-chlorophenyl)acetyl]amino}(3-{[(4-chlorophenyl)acetyl]amino}-4-oxo-3,4-dihydrophthalazin-1-yl)acetate] | 26.2% | –
CC(C)(C)COC(=O)NCc1nn(NC(=O)Cc2ccc(Cl)cc2)c(=O)c2ccccc12 [Example 184, 2,2-dimethylpropyl[(3-{[(4-chlorophenyl)acetyl]amino}-4-oxo-3,4-dihydrophthalazin-1-yl)methyl]carbamate] | 62.7% | 1320 nM
O=C(Cc1ccc(Br)cc1)Nn1nc(S(=O)(=O)c2ccccc2)c2ccccc2c1=O [Example 206, 2-(4-bromophenyl)-N-[1-oxo-4-(phenylsulfonyl)phthalazin-2(1H)-yl]acetamide] | 99.3% | 69.3 nM
O=C(Cc1ccc(Cl)cc1)Nn1nc(N2CCSCC2)c2ccccc2c1=O [Example 91, 2-(4-chlorophenyl)-N-[1-oxo-4-(thiomorpholin-4-yl)phthalazin-2(1H)-yl]acetamide] | 164% | 920 nM
COc1cccc(CC(=O)Nn2nc(N3CCOCC3)c3ccccc3c2=O)c1OC [Example 169, 2-(2,3-dimethoxyphenyl)-N-[4-(morpholin-4-yl)-1-oxophthalazin-2(1H)-yl]acetamide] | 23.6% | –
O=C(Cc1cc(F)ccc1F)Nn1nc(N2CCOCC2)c2ccccc2c1=O [Example 176, 2-(2,5-difluorophenyl)-N-[4-(morpholin-4-yl)-1-oxophthalazin-2(1H)-yl]acetamide] | 18% | –
O=C(CC1(O)CCCCC1)Nn1nc(-c2ccnc(Cl)c2)c2ccccc2c1=O [Example 71, N-[4-(2-chloropyridin-4-yl)-1-oxophthalazin-2(1H)-yl]-2-(1-hydroxycyclohexyl)acetamide] | 34% | –
Cc1ccc(S(=O)(=O)NCc2nn(NC(=O)Cc3ccc(Cl)cc3)c(=O)c3ccccc23)cc1 [Example 78, 2-(4-chlorophenyl)-N-[4-({[(4-methylphenyl)sulfonyl]amino}methyl)-1-oxophthalazin-2(1H)-yl]acetamide] | 44.1% | 9490 nM
Cc1ccc(CC(=O)Nn2nc(N3CCOCC3)c3ccccc3c2=O)cc1 [Example 141, 2-(4-methylphenyl)-N-[4-(morpholin-4-yl)-1-oxophthalazin-2(1H)-yl]acetamide] | 72% | 5240 nM
O=C(Cc1cccc(F)c1F)Nn1nc(N2CCOCC2)c2ccccc2c1=O [Example 175, 2-(2,3-difluorophenyl)-N-[4-(morpholin-4-yl)-1-oxophthalazin-2(1H)-yl]acetamide] | 17.3% | –
O=C(Cc1ccc(Cl)cc1)Nn1nc(S(=O)(=O)c2ccc(Br)cc2)c2ccccc2c1=O [Example 199, N-{4-[(4-bromophenyl)sulfonyl]-1-oxophthalazin-2(1H)-yl}-2-(4-chlorophenyl)acetamide] | 79.2% | 48.9 nM
O=C(Cc1cc(F)cc(F)c1)Nn1nc(N2CCCCC2)c2ccccc2c1=O [Example 22, 2-(3,5-difluorophenyl)-N-[1-oxo-4-(piperidin-1-yl)phthalazin-2(1H)-yl]acetamide] | 134% | 87.5 nM
O=C(Cc1ccc2c(c1)OCO2)Nn1nc(N2CCOCC2)c2ccccc2c1=O [Example 174, 2-(1,3-benzodioxol-5-yl)-N-[4-(morpholin-4-yl)-1-oxophthalazin-2(1H)-yl]acetamide] | 18.7% | –
O=C(Cc1ccc(Br)cc1)Nn1nc(N2CCOCC2)c2ccccc2c1=O [Example 155, 2-(4-bromophenyl)-N-[4-(morpholin-4-yl)-1-oxophthalazin-2(1H)-yl]acetamide] | 110% | 2560 nM

Further lines, results first:

Emax | EC50 | Structure (SMILES)
136% | 3180 nM | O=C(CC1CC2CCC1C2)Nn1nc(C(=NO)c2ccccc2)c2ccccc2c1=O (racemic) [Example 120, (±)-2-[(exo)-bicyclo[2.2.1]hept-2-yl]-N-{4-[(Z)-(hydroxyimino)(phenyl)methyl]-1-oxophthalazin-2(1H)-yl}acetamide]
179% | 13.1 nM | O=C(CC1CC2CCC1C2)Nn1nc(S(=O)(=O)c2ccccc2)c2ccccc2c1=O (racemic) [Example 70, (±)-2-[(exo)-bicyclo[2.2.1]hept-2-yl]-N-[1-oxo-4-(phenylsulfonyl)phthalazin-2(1H)-yl]acetamide]
155% | 2040 nM | O=C(CC1CC2CCC1C2)Nn1nc(C(=O)Nc2ccc(Cl)cc2)c2ccccc2c1=O (racemic) [Example 108, (±)-3-{[(exo)-bicyclo[2.2.1]hept-2-ylacetyl]amino}-N-(4-chlorophenyl)-4-oxo-3,4-dihydrophthalazine-1-carboxamide]
147% | 74.8 nM | O=C(CC1CC2CCC1C2)Nn1nc(S(=O)(=O)Cc2ccccc2)c2ccccc2c1=O (racemic) [Example 217, (±)-N-[4-(benzylsulfonyl)-1-oxophthalazin-2(1H)-yl]-2-[(exo)-bicyclo[2.2.1]hept-2-yl]acetamide]
92.6% | 5180 nM | CS(=O)(=O)c1ccc(CC(=O)Nn2nc(Sc3ccccc3)c3ccccc3c2=O)cc1 [Example 181, 2-[4-(methylsulfonyl)phenyl]-N-[1-oxo-4-(phenylsulfanyl)phthalazin-2(1H)-yl]acetamide]
140% | 515 nM | O=C(CC1CC2CCC1C2)Nn1nc(C2=CCOCC2)c2ccccc2c1=O (racemic) [Example 6, (±)-2-[(exo)-bicyclo[2.2.1]hept-2-yl]-N-[4-(3,6-dihydro-2H-pyran-4-yl)-1-oxophthalazin-2(1H)-yl]acetamide]
70.7% | 17300 nM | O=C(Cc1ccccc1)Nn1nc(N2CCOCC2)c2ccccc2c1=O [Example 111, N-[4-(morpholin-4-yl)-1-oxophthalazin-2(1H)-yl]-2-phenylacetamide]
123% | 228 nM | CC1CN(c2nn(NC(=O)CC(C)(C)c3ccccc3)c(=O)c3ccccc23)CC(C)O1 (stereo not shown) [Example 61, N-[4-(2,6-dimethylmorpholin-4-yl)-1-oxophthalazin-2(1H)-yl]-3-methyl-3-phenylbutanamide]
1.73% | – | COc1ccccc1CC(=O)Nn1nc(N2CCOCC2)c2ccccc2c1=O [Example 145, 2-(2-methoxyphenyl)-N-[4-(morpholin-4-yl)-1-oxophthalazin-2(1H)-yl]acetamide]
134% | 261 nM | CC(C)(CC(=O)Nn1nc(-c2ccc(Cl)nc2)c2ccccc2c1=O)c1ccccc1 [Example 27, N-[4-(6-chloropyridin-3-yl)-1-oxophthalazin-2(1H)-yl]-3-methyl-3-phenylbutanamide]
114% | 2900 nM | O=C(Cc1cccc(Br)c1)Nn1nc(N2CCOCC2)c2ccccc2c1=O [Example 154, 2-(3-bromophenyl)-N-[4-(morpholin-4-yl)-1-oxophthalazin-2(1H)-yl]acetamide]
144% | 25.3 nM | O=C(CC1CC2CCC1C2)Nn1nc(N2CCCCC2)c2ccccc2c1=O (racemic) [Example 25, (±)-2-[(exo)-bicyclo[2.2.1]hept-2-yl]-N-[1-oxo-4-(piperidin-1-yl)phthalazin-2(1H)-yl]acetamide]
137% | 201 nM | O=C(CC12CC3CC(CC1C3)C2)Nn1nc(-c2ccc(C(F)(F)F)nc2)c2ccccc2c1=O [Example 211, 2-(hexahydro-2,5-methanopentalen-3a(1H)-yl)-N-{1-oxo-4-[6-(trifluoromethyl)pyridin-3-yl]phthalazin-2(1H)-yl}acetamide]
172% | 8070 nM | O=C(CC1CCCO1)Nn1nc(-c2ccnc(Cl)c2)c2ccccc2c1=O (stereo not shown) [Example 73, N-[4-(2-chloropyridin-4-yl)-1-oxophthalazin-2(1H)-yl]-2-(tetrahydrofuran-2-yl)acetamide]
112% | 3490 nM | O=C(Cc1ccc(Cl)cc1)Nn1nc(N2CCN(Cc3ccccc3)CC2)c2ccccc2c1=O [Example 101, N-[4-(4-benzylpiperazin-1-yl)-1-oxophthalazin-2(1H)-yl]-2-(4-chlorophenyl)acetamide]
13.4% | – | O=C(CC1CC2CCC1C2)Nn1nc(-c2ccnc(O)c2)c2ccccc2c1=O (racemic) [Example 46, (±)-2-[(exo)-bicyclo[2.2.1]hept-2-yl]-N-[4-(2-hydroxypyridin-4-yl)-1-oxophthalazin-2(1H)-yl]acetamide]
